Assay results published in article PMC4426599, “Structure and mechanism of an antibiotics-synthesizing 3-hydroxykynurenine C-methyltransferase” (Scientific Reports, 2015).

Key:
[1] = target: T1, Ss-SibL (SibL) (Streptosporangium sibiricum, UniProt C0LTM6); test: X-ray crystal structure of ternary complex with SAH, […] A; format: binding; details: SAH bound; D-/L-3-HK used in crystallization; pH 7.7; substrate site
T1 construct: recombinant His6-tagged (pET-21b), E. coli BL21(DE3), Ni-NTA and gel filtration; homodimer; tag removal not described

[2] = target: T1, Ss-SibL (SibL); test: X-ray crystal structure of binary complex, […] A; format: binding; details: crystals obtained by using SAM, modelled as SAH; pH 7.7; SAM site; also bound in ternary complex 4U1Q
[3] = target: the molecule itself; test: crystal structure; crystals of apo Ss-SibL, of the binary complex with SAH and of the ternary complex with SAH and 3-HK; sitting-drop vapour diffusion; homodimer seen in the crystal

Nc1c(O)cccc1C(=O)C[C@H](N)C(=O)O [L-3-HK]
X-ray crystal structure of ternary complex with SAH, 2.1 A [1]: the electron densities clearly indicate that the bound substrate is L-3-HK

Nc1ncnc2c1ncn2[C@@H]1O[C@H](CSCC[C@H](N)C(=O)O)[C@@H](O)[C@H]1O [S-adenosylhomocysteine]
X-ray crystal structure of binary complex, 2.6 A [2]: the binary Ss-SibL/SAH and the ternary Ss-SibL/SAH/3HK complex crystals diffracted to higher resolution

B1: Streptosporangium sibiricum SibL (enzyme)
chain: MSSELSALVPVLFGHAAFQQLNAGCQLGLFELLHERGPLSAEEVADALRLPRRSADILLLGTTALGLSTVTDGGYRNGAPIGAAFRDGLWPVLRDIVQYQDKIAYQPAADYVESLRTGQNAGIRHFPGTTRDLYSRLAAVPGLEELFYRGMHAWSQLSNPVLLAQPDFTRVHRVLDVGGGDAVNAVALARAHPSLRVTVLDRPGALEVARKTIAEAGLEERVRTHAADIFTDSYPAGHDCVLFAHQLVIWSPEQNLTLLRKAYDAVEPGGRVLVFNAFTDDDRTGPLYAALDNVYFTTLPFRHSTIHRWADCESWLREAGFTDVGRTAPPGWTPHGVVSGSRPR
notes: SibL, SAM-dependent 3-hydroxykynurenine C-methyltransferase of Streptosporangium sibiricum; amplified by PCR from S. sibiricum genomic DNA and cloned into pET-21b; Homodimer in the crystals; The ternary complex was first phased with selenomethionine-substituted protein; also called Ss-SibL; 3-hydroxykynurenine C-methyltransferase; source: E. coli BL21 (DE3), purified (Ni-NTA, Superdex-200 size …)
stoichiometry N [3]: 2
